From patent publication EP0498941A2, “Peptide skeletal muscle relaxants” (BOC Health Care, Inc., priority 1991, dated 1992)

Test system: neuromuscular junction
Test: Rabbit paw twitch analysis (neuromuscular blocking activity)
Format: in vivo, Male New Zealand white rabbits
Text: In a large series of similar relaxants, the rabbit dose is typically 125% of that in mice. The mechanism of action was also confirmed in this test by observing train-of-four and tetanus fade, post-tetanic potentiation of single twitches and administration of the anticholinesterase drug neostigmine which reverses the relaxation. Reversibility, rapid onset and short duration are important factors to the anesthesiologist.
The following is a brief description of the methodologies used in rabbits to describe neuromuscular blocking activity of the subject compounds. A more detailed description of these methods is presented in "Microcomputer Use in Measuring Onset, Duration, and Recovery from Non-Depolarizing Skeletal Muscle Relaxants in Rabbits", P.D. Thut et al., Drug development Research 5:182, 1985.
Male New Zealand white rabbits weighing between 2.5 and 3.4 kg were anesthetized with pentobarbital (30 mg/kg) and placed on their backs upon a 40°C water filled temperature regulation pad. Following tracheostomy, the lungs were mechanically ventilated at 28 breaths per minute with room air, using an open system delivering 200 ml/stroke. This ventilation maintained pCO₂ at 38 […] and pO₂ at 85 mmHg. Direct arterial blood pressure was measured from the right common carotid artery. The test compounds were administered through a cannula placed in the marginal ear vein. Each foreleg was taped to a cushioned plate held in a femur clamp attached to the spinal board rack. The left centeral digit of each paw was connected to a force displacement transducer for measurement of muscle tension. Nerve stimulation was provided by pairs of pin electrodes placed on both sides of the ulnar nerve at the elbow of both forearms. The right ulnar nerve was stimulated at 1 Hz, 1 pps for .5 msec duration. The left ulnar nerve was similarly stimulated, every 15 seconds, with addition of interspersed trains-of-four and tetanizing stimuli. The parameters reported in Table II are: potency (ED90), which is the dose required to depress twitch tension to 10% of its control value; onset (T85%), which is the time from injection until 85% of the maximal drug effect is achieved; duration, which is the time from injection until the train-of-four has recovered to 75%; blood pressure (BP), which is the percentage change of pre-drug blood pressure; and heart rate (HR), which is the percentage change from pre-drug heart rate.

SMILES | ED90 (Oryctolagus cuniculus, iv, potency: dose required to depress twitch tension to 10% of its control value, pentobarbital-anesthetized rabbits, marginal ear vein) [mg/kg] | T85% (onset: time from injection until 85% of the maximal drug effect is achieved, equi-efficacious dose) [s] | Duration (time from injection until the train-of-four has recovered to 75%, equi-efficacious dose) [min] | BP (rabbit, in vivo) [% change] | Duration (rabbit, in vivo) [min] | ED9O (rabbit, in vivo) [mg/kg] | HR (rabbit, in vivo) | T85% (rabbit, in vivo) [s]
COc1ccc(CC2c3cc(OC)c(OC)cc3CC[N+]2(C)CCC(=O)OCCCCCOC(=O)CC[N+]2(C)CCc3cc(OC)c(OC)cc3C2Cc2ccc(OC)c(OC)c2)cc1OC (stereo not shown) [atracurium] | 0.05 | 126.90 | 14.30 | – | – | – | – | –
CC(=O)O[C@H]1C[C@@H]2CC[C@@H]3[C@H](CC[C@@]4(C)[C@H]3C[C@H]([N+]3(C)CCCCC3)[C@@H]4OC(C)=O)[C@@]2(C)C[C@@H]1[N+]1(C)CCCCC1 [pancuronium] | – | – | – | 2.70 | 35.50 | 0.02 | 0.00 % change | 147.50
CC(=O)O[C@H]1C[C@@H]2CC[C@@H]3[C@H](CC[C@@]4(C)[C@H]3C[C@H]([N+]3(C)CCCCC3)[C@@H]4OC(C)=O)[C@@]2(C)C[C@@H]1N1CCCCC1 [vecuronium] | – | – | – | 1.10 | 16.80 | 0.02 | - 9.90 % change | 97.30
